In brackets after ≈: the same amount, converted by molar mass.
Columns and labels:
[1] = Peptide self-association by temperature profiling in RP-HPLC; format: physicochemical; settings: for PA: self-association parameter relative to random coil control peptide RC; for Tp: temperature at which maximum retention time is observed, 5-77° C.
Protocol: Retention behavior from eight AMPs after normalization to their retention times at 5° C. over the temperature range 5° C. to 41° C. in 2° C. increments or 5° C. to 75° C. in 10° C. increments (methodology details provided in Examples). […] Peptide denotions in FIG. 5 have been abbreviated from those shown in Table 1G; for example, D87(Lys1-6 Arg-1) has been shortened to D87(6 Arg-1). RC is a random coil control peptide used for RP-HPLC temperature profiling. The peptide self-association parameter, PA, represents the maximum change in peptide retention time relative to the random coil peptide, RC (PA values shown in Table 6). […] T., et al. J. Med. Chem. 2019, 62:3354-66.
Hemoglobin release was determined spectrophotometrically at 570 nm.
Peptide self-association, the ability to dimerize/oligomerize in aqueous solution, is a very important parameter to optimize antimicrobial activity and toxicity as measured by hemolytic activity. We have proposed that the monomeric random-coil antimicrobial peptides in aqueous solution are best suited to pass through a polysaccharide capsule, the outer membrane lipopolysaccharide and the cell wall peptidoglycan layer of Gram-negative bacteria prior to penetration into the cytoplasmic membrane, where there is induction of α-helical structure and disruption of membrane structure, cell leakage and death of bacterial cells. In contrast, if the self-association ability of an AMP in aqueous medium is too strong, stable folded dimers/oligomers are formed through interaction of their non-polar faces which decreases the ability of the AMP to dissociate to monomer and the dimer/oligomer to effectively pass through the capsule and cell wall to reach the cytoplasmic membrane. The ability of an AMP to self-associate was determined by a RP-HPLC technique developed in our laboratory, referred to as temperature profiling over the temperature range 5° C. to 80° C. […] These eight AMPs are compared to a random-coil control peptide denoted RC. […] This linear decrease in retention behavior with increasing temperature represents the general effects of temperature due to greater solute diffusivity and enhanced mass transfer between the mobile and stationary phases. The difference in retention time between an amphipathic α-helical antimicrobial peptide and the RC control peptide is a measure of the ability of a peptide to associate. The association parameter, PA is large for AMPs without specificity determinants (Ala 13 and Ala 16) ranging from 12.5 to 28.0 min (Table 6) and is shown by a black arrow in FIG. 5. The association parameter, PA, is dramatically smaller for AMPs with specificity determinants (Lys 13 and Lys 16 in the center of the non-polar face) and range from 0 to 6 min (Table 6). […]

[2] = system: Acinetobacter baumannii isolates resistant to classical antibiotics; format: cell-based; settings: for MICGM: geometric mean over 20 strains; for MIC 101887: strain 101887 (lower line); for MIC 961997: strain 961997 (lower line); for MIC 963618: strain 963618 (lower line); for MIC 964304: strain 964304 (lower line); for MIC 977751: strain 977751 (lower line); for MIC 981653: strain 981653 (lower line); for MIC 1002956: strain 1002956 (lower line); for MIC 1007660: strain 1007660 (lower line); for MIC 1010282: strain 1010282 (lower line); for MIC 1035166: strain 1035166 (lower line)

| Compound | PA [1] | Tp [1] | MICGM [2] | MIC 101887 [2] | MIC 961997 [2] | MIC 963618 [2] | MIC 964304 [2] | MIC 977751 [2] | MIC 981653 [2] | MIC 1002956 [2] | MIC 1007660 [2] | MIC 1010282 [2] | MIC 1035166 [2] |
| --- | --- | --- | --- | --- | --- | --- | --- | --- | --- | --- | --- | --- | --- |
| CC(=O)N[C@H](CCCCN)C(=O)N[C@H](CC(C)C)C(=O)N[C@H](CCN)C(=O)N[C@H](CO)C(=O)N[C@H](CC(C)C)C(=O)N[C@H](CC(C)C)C(=O)N[C@H](CCN)C(=O)N[C@@H](C(=O)N[C@H](CC(C)C)C(=O)N[C@H](CO)C(=O)N[C@H](CCN)C(=O)N[C@H](C)C(=O)N[C@H](C)C(=O)N[C@H](C)C(=O)N[C@H](C)C(=O)N[C@H](C)C(=O)N[C@H](CC(C)C)C(=O)N[C@H](CCN)C(=O)N[C@@H](C(=O)N[C@H](CC(C)C)C(=O)N[C@H](CC(C)C)C(=O)N[C@H](CCN)C(=O)N[C@H](C)C(=O)N[C@H](CC(C)C)C(=O)N[C@H](CO)C(=O)N[C@H](CCN)C(N)=O)[C@H](C)O)[C@H](C)O [D86(K13A/K16A)-(Lys^1-6Dab-1), Ac-KL(Dab)SLL(Dab)TLS(Dab)AAAAAL(Dab)TLL(Dab)ALS(Dab)-amide] | 12.5 min | 31.0 °C | 0.9 µM | 0.5 µM (≈ 1.29 µg/mL) | 0.8 µM (≈ 2.07 µg/mL) | 0.8 µM (≈ 2.07 µg/mL) | 1.5 µM (≈ 3.87 µg/mL) | 3.1 µM (≈ 8.01 µg/mL) | 0.4 µM (≈ 1.03 µg/mL) | 0.8 µM (≈ 2.07 µg/mL) | 0.8 µM (≈ 2.07 µg/mL) | 0.8 µM (≈ 2.07 µg/mL) | 0.8 µM (≈ 2.07 µg/mL) |
| CC(=O)N[C@H](CCCCN)C(=O)N[C@H](CC(C)C)C(=O)N[C@H](CN)C(=O)N[C@H](CO)C(=O)N[C@H](CC(C)C)C(=O)N[C@H](CC(C)C)C(=O)N[C@H](CN)C(=O)N[C@@H](C(=O)N[C@H](CC(C)C)C(=O)N[C@H](CO)C(=O)N[C@H](CN)C(=O)N[C@H](C)C(=O)N[C@H](C)C(=O)N[C@H](C)C(=O)N[C@H](C)C(=O)N[C@H](C)C(=O)N[C@H](CC(C)C)C(=O)N[C@H](CN)C(=O)N[C@@H](C(=O)N[C@H](CC(C)C)C(=O)N[C@H](CC(C)C)C(=O)N[C@H](CN)C(=O)N[C@H](C)C(=O)N[C@H](CC(C)C)C(=O)N[C@H](CO)C(=O)N[C@H](CN)C(N)=O)[C@H](C)O)[C@H](C)O [D105(K13A/K16A)-(Lys^1-6Dap-1), Ac-KL(Dap)SLL(Dap)TLS(Dap)AAAAAL(Dap)TLL(Dap)ALS(Dap)-amide] | 18.0 min | 39.0 °C | 2.0 µM | 3.2 µM (≈ 8 µg/mL) | 3.2 µM (≈ 8 µg/mL) | 1.6 µM (≈ 4 µg/mL) | 3.2 µM (≈ 8 µg/mL) | 0.8 µM (≈ 2 µg/mL) | 1.6 µM (≈ 4 µg/mL) | 1.6 µM (≈ 4 µg/mL) | 3.2 µM (≈ 8 µg/mL) | 1.6 µM (≈ 4 µg/mL) | 3.2 µM (≈ 8 µg/mL) |
